Reference: patent US12109218B2, “Compositions of grapiprant and methods for using the same” (ARATANA THERAPEUTICS, INC., priority 2014, dated 2024)
Read-outs that look alike come from different tables or passages of the source.

Experiments:
[1] = system: onychectomy in cats; assay: Onychectomy pain model in cats (Example 5); format: in vivo, cat; details: vs placebo
Excerpt: The objective of this pilot study was to validate that this model/pain scoring system can differentiate positive from negative control animals in controlling the pain and inflammation of onychectomy and to test the effectiveness of a single dose of grapiprant in controlling the pain and inflammation associated with onychectomy in cats.
Following an acclimation period of 7, 8, or 9 days, a total of 30 adult cats were randomly divided between three treatment groups with ten animals assigned to each group. All animals were randomly assigned to a given surgery day such that within each day, an equal number of cats was from each treatment group. Within each day, the order of surgery was also randomized. […]
Surgical Procedure. […] During surgical procedures, each animal was monitored for at least heart rate and respiratory rate. […] Following surgery, each animal was periodically monitored until full recovery. […] Extubation time (time zero=T0) was recorded as the end of surgery.
All study animals were scored for sedation and analgesia the following schedule in Table 10. […]
Analgesia scores were given at specified time points during the study. […] Analgesia was scored by the same assessor during the first 8 hours of the study. […]
Results. The cat was evaluated as the experimental unit. Differences between treatment groups were evaluated at alpha of 0.05. […]

[2] = Dose linearity and effect of feeding, PK in cats (Example 10); format: in vivo, cat; details: for Cmax / AUC(0-inf) / Tmax / half-life / AUC(0-t): serum, po
Method: Grapiprant was blended in a mixture of excipients as shown in Table 14 and administered orally by capsule to male and female cats.
The day of dosing was defined as Day 0. Following dosing, the animals were evaluated for clinical signs. Blood samples were collected prior to dosing and at 0.25, 0.5, 1, 2, 4, 8, 12, and 24-hours postdose. The blood samples were processed to serum and analyzed for grapiprant concentration. There were no test article-related clinical signs. The mean grapiprant pharmacokinetic results were as follow in Table 16.

## CCc1nc2c(C)nc(C)cc2n1-c1ccc(CCNC(=O)NS(=O)(=O)c2ccc(C)cc2)cc1 [grapiprant, N-{2-[4-(2-ethyl-4,6-dimethyl-1H-imidazo[4,5-c]pyridin-1-yl)phenyl]ethyl}-N′-[(4-methylphenyl)sulfonyl]urea]
[1]; 20 mg tablet Formulation A34 about 30 minutes before onychectomy
  sedation scores: without an apparent effect on sedation scores
[1]; oral tablet about 30 minutes before onychectomy (grapiprant: 20 mg tablet Formulation A34, Day 0 only; Onsior: 6 mg, Days 0-2)
  analgesia scores: decreased analgesia scores (reduced pain)
[2]; both sexes, 2 mg/kg, Group 1 fed cats, single oral 2 mg/kg capsule, males and females, read-out: Mean Cmax
  Cmax: 327 to 407 ng/mL
[2]; both sexes, 2 mg/kg, Group 1 fed cats, single oral 2 mg/kg capsule, males and females, read-out: mean AUC0-∞
  AUC(0-inf): 1070 to 1220 ng·h/mL
[2]; both sexes, 2 mg/kg, Group 1 fed cats, single oral 2 mg/kg capsule, males and females, read-out: mean Tmax
  Tmax: 1.33 to 1.65 h
[2]; both sexes, 2 mg/kg, Group 1 fed cats, single oral 2 mg/kg capsule, males and females, read-out: mean terminal half-life
  half-life: 144 to 187 min
[2]; both sexes, 2 mg/kg, Group 2 fasted cats, single oral 2 mg/kg capsule, males and females, read-out: Mean Cmax
  Cmax: 1100 to 1630 ng/mL
[2]; both sexes, 2 mg/kg, Group 2 fasted cats, single oral 2 mg/kg capsule, males and females, read-out: mean AUC0-∞
  AUC(0-inf): 1970 to 2850 ng·h/mL
[2]; both sexes, 2 mg/kg, Group 2 fasted cats, single oral 2 mg/kg capsule, males and females, read-out: mean Tmax
  Tmax: 1.01 h
[2]; both sexes, 2 mg/kg, Group 2 fasted cats, single oral 2 mg/kg capsule, males and females, read-out: mean terminal half-life
  half-life: 88.2 to 130 min
[2]; both sexes, 6 mg/kg, Group 3 fasted cats, single oral 6 mg/kg capsule, males and females, read-out: Mean Cmax
  Cmax: 2970 to 3110 ng/mL
[2]; both sexes, 6 mg/kg, Group 3 fasted cats, single oral 6 mg/kg capsule, males and females, read-out: mean AUC0-∞
  AUC(0-inf): 3750 to 6350 ng·h/mL
[2]; both sexes, 6 mg/kg, Group 3 fasted cats, single oral 6 mg/kg capsule, males and females, read-out: mean Tmax
  Tmax: 0.99 to 1.17 h
[2]; both sexes, 6 mg/kg, Group 3 fasted cats, single oral 6 mg/kg capsule, males and females, read-out: mean terminal half-life
  half-life: 167 to 299 min
[2]; both sexes, 10 mg/kg, Group 4 fasted cats, single oral 10 mg/kg capsule, males and females, read-out: Mean Cmax
  Cmax: 4280 to 7130 ng/mL
[2]; both sexes, 10 mg/kg, Group 4 fasted cats, single oral 10 mg/kg capsule, males and females, read-out: mean AUC0-∞
  AUC(0-inf): 7580 to 10900 ng·h/mL
[2]; both sexes, 10 mg/kg, Group 4 fasted cats, single oral 10 mg/kg capsule, males and females, read-out: mean Tmax
  Tmax: 0.728 to 1.33 h
[2]; both sexes, 10 mg/kg, Group 4 fasted cats, single oral 10 mg/kg capsule, males and females, read-out: mean terminal half-life
  half-life: 242 to 251 min
[2]; cats, one-time oral capsule, 2 (fed and fasted), 6, and 10 mg/kg
  tolerability: well-tolerated with no test article-related clinical signs
[2]; fasted cats, Groups 2-4, 2-10 mg/kg
  dose linearity of exposure (AUC0-∞): roughly dose-linear but less than dose-proportional
[2]; female, 2 mg/kg, cats, Group 1, 2 mg/kg capsule, Fed, Female, mean
  AUC(0-t): 990 ng·h/mL
[2]; female, 2 mg/kg, cats, Group 1, 2 mg/kg capsule, Fed, Female, mean, read-out: AUC0-∞
  AUC(0-inf): 1070 ng·h/mL
[2]; female, 2 mg/kg, cats, Group 1, 2 mg/kg capsule, Fed, Female, mean, read-out: Cmax
  Cmax: 327 ng/mL
[2]; female, 2 mg/kg, cats, Group 1, 2 mg/kg capsule, Fed, Female, mean, read-out: Tmax
  Tmax: 1.33 h
[2]; female, 2 mg/kg, cats, Group 1, 2 mg/kg capsule, Fed, Female, mean, read-out: t1/2 (converted)
  half-life: 144 min
[2]; female, 2 mg/kg, cats, Group 2, 2 mg/kg capsule, Fasted, Female, mean
  AUC(0-t): 2780 ng·h/mL
[2]; female, 2 mg/kg, cats, Group 2, 2 mg/kg capsule, Fasted, Female, mean, read-out: AUC0-∞
  AUC(0-inf): 2850 ng·h/mL
[2]; female, 2 mg/kg, cats, Group 2, 2 mg/kg capsule, Fasted, Female, mean, read-out: Cmax
  Cmax: 1630 ng/mL
[2]; female, 2 mg/kg, cats, Group 2, 2 mg/kg capsule, Fasted, Female, mean, read-out: Tmax
  Tmax: 1.01 h
[2]; female, 2 mg/kg, cats, Group 2, 2 mg/kg capsule, Fasted, Female, mean, read-out: t1/2 (converted)
  half-life: 88.2 min
[2]; female, 6 mg/kg, cats, Group 3, 6 mg/kg capsule, Fasted, Female, mean
  AUC(0-t): 6130 ng·h/mL
[2]; female, 6 mg/kg, cats, Group 3, 6 mg/kg capsule, Fasted, Female, mean, read-out: AUC0-∞
  AUC(0-inf): 6350 ng·h/mL
[2]; female, 6 mg/kg, cats, Group 3, 6 mg/kg capsule, Fasted, Female, mean, read-out: Cmax
  Cmax: 3110 ng/mL
[2]; female, 6 mg/kg, cats, Group 3, 6 mg/kg capsule, Fasted, Female, mean, read-out: Tmax
  Tmax: 1.17 h
[2]; female, 6 mg/kg, cats, Group 3, 6 mg/kg capsule, Fasted, Female, mean, read-out: t1/2 (converted)
  half-life: 299 min
[2]; female, 10 mg/kg, cats, Group 4, 10 mg/kg capsule, Fasted, Female, mean
  AUC(0-t): 10700 ng·h/mL
[2]; female, 10 mg/kg, cats, Group 4, 10 mg/kg capsule, Fasted, Female, mean, read-out: AUC0-∞
  AUC(0-inf): 10900 ng·h/mL
[2]; female, 10 mg/kg, cats, Group 4, 10 mg/kg capsule, Fasted, Female, mean, read-out: Cmax
  Cmax: 7130 ng/mL
[2]; female, 10 mg/kg, cats, Group 4, 10 mg/kg capsule, Fasted, Female, mean, read-out: Tmax
  Tmax: 0.73 h
[2]; female, 10 mg/kg, cats, Group 4, 10 mg/kg capsule, Fasted, Female, mean, read-out: t1/2 (converted)
  half-life: 251 min
[2]; male, 2 mg/kg, cats, Group 1, 2 mg/kg capsule, Fed, Male, mean
  AUC(0-t): 1030 ng·h/mL
[2]; male, 2 mg/kg, cats, Group 1, 2 mg/kg capsule, Fed, Male, mean, read-out: AUC0-∞
  AUC(0-inf): 1220 ng·h/mL
[2]; male, 2 mg/kg, cats, Group 1, 2 mg/kg capsule, Fed, Male, mean, read-out: Cmax
  Cmax: 407 ng/mL
[2]; male, 2 mg/kg, cats, Group 1, 2 mg/kg capsule, Fed, Male, mean, read-out: Tmax
  Tmax: 1.65 h
[2]; male, 2 mg/kg, cats, Group 1, 2 mg/kg capsule, Fed, Male, mean, read-out: t1/2 (converted)
  half-life: 187 min
[2]; male, 2 mg/kg, cats, Group 2, 2 mg/kg capsule, Fasted, Male, mean
  AUC(0-t): 2290 ng·h/mL
[2]; male, 2 mg/kg, cats, Group 2, 2 mg/kg capsule, Fasted, Male, mean, read-out: AUC0-∞
  AUC(0-inf): 1970 ng·h/mL
[2]; male, 2 mg/kg, cats, Group 2, 2 mg/kg capsule, Fasted, Male, mean, read-out: Cmax
  Cmax: 1100 ng/mL
[2]; male, 2 mg/kg, cats, Group 2, 2 mg/kg capsule, Fasted, Male, mean, read-out: Tmax
  Tmax: 1.01 h
[2]; male, 2 mg/kg, cats, Group 2, 2 mg/kg capsule, Fasted, Male, mean, read-out: t1/2 (converted)
  half-life: 130 min
[2]; male, 6 mg/kg, cats, Group 3, 6 mg/kg capsule, Fasted, Male, mean
  AUC(0-t): 3650 ng·h/mL
[2]; male, 6 mg/kg, cats, Group 3, 6 mg/kg capsule, Fasted, Male, mean, read-out: AUC0-∞
  AUC(0-inf): 3750 ng·h/mL
[2]; male, 6 mg/kg, cats, Group 3, 6 mg/kg capsule, Fasted, Male, mean, read-out: Cmax
  Cmax: 2970 ng/mL
[2]; male, 6 mg/kg, cats, Group 3, 6 mg/kg capsule, Fasted, Male, mean, read-out: Tmax
  Tmax: 0.99 h
[2]; male, 6 mg/kg, cats, Group 3, 6 mg/kg capsule, Fasted, Male, mean, read-out: t1/2 (converted)
  half-life: 167 min
[2]; male, 10 mg/kg, cats, Group 4, 10 mg/kg capsule, Fasted, Male, mean
  AUC(0-t): 7430 ng·h/mL
[2]; male, 10 mg/kg, cats, Group 4, 10 mg/kg capsule, Fasted, Male, mean, read-out: AUC0-∞
  AUC(0-inf): 7580 ng·h/mL
[2]; male, 10 mg/kg, cats, Group 4, 10 mg/kg capsule, Fasted, Male, mean, read-out: Cmax
  Cmax: 4280 ng/mL
[2]; male, 10 mg/kg, cats, Group 4, 10 mg/kg capsule, Fasted, Male, mean, read-out: Tmax
  Tmax: 1.33 h
[2]; male, 10 mg/kg, cats, Group 4, 10 mg/kg capsule, Fasted, Male, mean, read-out: t1/2 (converted)
  half-life: 242 min
